The source of these data is article PMC5162400, “Discovery of novel inhibitors disrupting HIF-1α/von Hippel–Lindau interaction through shape-based screening and cascade docking” (PeerJ, 2016).

By Kd is commonly meant the free concentration of one partner at which half of the binding sites on the other are occupied at equilibrium, for simple one-to-one binding. The IC50 is the midpoint of a concentration-inhibition curve. High values mean a need for much substance, low ones inhibition by little substance.

In assay [1] the target is T1, pVHL (Homo sapiens, UniProt P40337). Further details: method as in earlier work. As to conditions: native ligands of pVHL crystal complexes, labelled by PDB ID, ref Buckley et al., 2012b, Van-Molle et al., 2012a, Dias et al., 2014, Galdeano et al., read-out: Kd of native ligand; cited from earlier work.
T1 sequence (P40337 whole entry): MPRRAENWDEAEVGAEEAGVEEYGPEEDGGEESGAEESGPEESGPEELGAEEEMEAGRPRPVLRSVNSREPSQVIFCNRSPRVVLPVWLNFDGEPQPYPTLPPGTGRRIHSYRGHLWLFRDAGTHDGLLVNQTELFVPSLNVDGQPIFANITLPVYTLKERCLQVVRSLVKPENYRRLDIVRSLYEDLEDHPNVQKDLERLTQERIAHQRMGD
T1 sequence (Q15369 whole entry partner): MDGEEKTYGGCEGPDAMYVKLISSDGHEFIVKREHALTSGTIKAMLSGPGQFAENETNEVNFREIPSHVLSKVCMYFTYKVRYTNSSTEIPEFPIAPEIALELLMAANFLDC
T1 sequence (Q15370 whole entry partner): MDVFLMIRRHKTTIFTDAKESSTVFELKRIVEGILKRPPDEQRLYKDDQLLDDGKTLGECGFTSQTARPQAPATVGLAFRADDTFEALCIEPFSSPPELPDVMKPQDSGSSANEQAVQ
For assay [2], the target named is T1, pVHL. As to the kind of experiment: Fluorescence polarization binding assay (FAM-DEALA-Hyp-YIPD displacement from V1-213CB). Particulars: inhibition of HIF-1α/pVHL interaction, mean ± SEM.
Method: The fluorescence intensities parallel (Intparallel) and perpendicular (Intperpedicular) to the plane of excitation were measured in black 96-well NBS assay plates (Greiner Microlon) at room temperature. The plate was then shaken for 1 min and centrifuged for 1 min. […] The inhibition percentage was determined by normalizing to maximum and minimum polarization and graphed against the log [VL].

Consider `Cc1ncsc1-c1ccc(CNC(=O)C2CC(O)CN2C(=O)c2cccc(N)c2C)cc1` (stereo not drawn) [Compound 4B9K], for which, at pVHL [1], the Kd is 700 nM.
Compound `c1ccc(-c2ccc(-c3nc4ccc(-c5ccccc5)cc4o3)cc2)cc1` [Compound 6] yielded a concentration for half-maximal inhibition (IC50) at pVHL [2] of 102000 ± 6130 nM.
On the same count and under the same terms, in the case of `CC1=NN(c2ccccc2)C(=O)/C1=N\Nc1ccc(N2CCOCC2)cc1` [Compound 9] it was 2000 ± 140 nM.
